Consider twelve molecules from ChEMBL document CHEMBL1201862, “PubChem BioAssay data set” (2004).

The target of assay [1] is DNA dC->dU-editing enzyme APOBEC-3G (Homo sapiens, UniProt Q9HC16). Nature of the assay: Dose Response confirmation of small molecule APOBEC3G DNA Deaminase Inhibitors via a fluorescence-based single-stranded DNA deaminase assay. [Related pubchem assays (depositor defined):AID493012, AID493028]. In kind it is functional.
The nature of assay [2]: A cytotoxicity screen of small molecule inhibitors of the PhoP region in Salmonella typhi identified in the primary screen. [Related pubchem assays: 1850, 1864, 1985 ]. The class given is functional.
The target of a further assay is Trypsin (Sus scrofa, UniProt P00761). Nature of the assay: trypsin protease activity blockade – biochemical, quenched peptide fluorescence, cherry-pick, selectivity assay for Rce1 protease inhibitor project, dose response (AID 488789).
Trypsin, sequence (P00761 whole entry): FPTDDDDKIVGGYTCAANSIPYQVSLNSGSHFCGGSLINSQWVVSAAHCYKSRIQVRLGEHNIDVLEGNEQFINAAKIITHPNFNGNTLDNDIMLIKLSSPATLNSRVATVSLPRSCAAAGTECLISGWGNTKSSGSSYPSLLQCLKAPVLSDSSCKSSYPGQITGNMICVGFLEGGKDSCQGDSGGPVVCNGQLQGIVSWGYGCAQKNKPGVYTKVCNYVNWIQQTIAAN
The target of a further assay is T1, Protein RecA (Mycobacterium tuberculosis, UniProt P9WHJ3).
T1 sequence (P9WHJ3 whole entry): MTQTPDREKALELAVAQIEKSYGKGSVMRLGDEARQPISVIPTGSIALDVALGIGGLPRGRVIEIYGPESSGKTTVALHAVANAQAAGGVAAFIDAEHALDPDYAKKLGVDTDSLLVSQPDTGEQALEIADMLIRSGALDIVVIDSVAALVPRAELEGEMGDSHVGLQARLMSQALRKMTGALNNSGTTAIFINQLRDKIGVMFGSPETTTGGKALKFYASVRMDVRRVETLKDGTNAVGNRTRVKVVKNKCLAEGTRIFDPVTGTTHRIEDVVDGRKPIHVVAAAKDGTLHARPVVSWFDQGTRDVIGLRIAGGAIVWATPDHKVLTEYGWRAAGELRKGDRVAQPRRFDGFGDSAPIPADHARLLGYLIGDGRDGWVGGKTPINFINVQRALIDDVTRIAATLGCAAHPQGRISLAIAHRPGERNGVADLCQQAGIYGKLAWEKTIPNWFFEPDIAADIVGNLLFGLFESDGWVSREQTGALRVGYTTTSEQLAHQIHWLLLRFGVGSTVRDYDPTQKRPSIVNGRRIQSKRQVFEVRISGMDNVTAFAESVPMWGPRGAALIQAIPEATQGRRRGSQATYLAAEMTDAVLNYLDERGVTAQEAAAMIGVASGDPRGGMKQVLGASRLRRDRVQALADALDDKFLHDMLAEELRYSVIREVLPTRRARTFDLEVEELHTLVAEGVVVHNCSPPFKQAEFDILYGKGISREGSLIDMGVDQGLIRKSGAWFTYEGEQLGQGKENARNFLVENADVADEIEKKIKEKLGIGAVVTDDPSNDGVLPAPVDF
Kind of assay: Fluorescence Cell-Free Homogeneous Dose Retest to Identify Inhibitors of RecA-Intein Splicing Activity. [Related pubchem assays (depositor defined):AID2097, AID2223, AID489010, AID492950]. In kind it is functional.

Another assay addresses T2, Leucine aminopeptidase (Plasmodium falciparum 3D7, UniProt Q8IL11).
T2 sequence (Q8IL11 whole entry): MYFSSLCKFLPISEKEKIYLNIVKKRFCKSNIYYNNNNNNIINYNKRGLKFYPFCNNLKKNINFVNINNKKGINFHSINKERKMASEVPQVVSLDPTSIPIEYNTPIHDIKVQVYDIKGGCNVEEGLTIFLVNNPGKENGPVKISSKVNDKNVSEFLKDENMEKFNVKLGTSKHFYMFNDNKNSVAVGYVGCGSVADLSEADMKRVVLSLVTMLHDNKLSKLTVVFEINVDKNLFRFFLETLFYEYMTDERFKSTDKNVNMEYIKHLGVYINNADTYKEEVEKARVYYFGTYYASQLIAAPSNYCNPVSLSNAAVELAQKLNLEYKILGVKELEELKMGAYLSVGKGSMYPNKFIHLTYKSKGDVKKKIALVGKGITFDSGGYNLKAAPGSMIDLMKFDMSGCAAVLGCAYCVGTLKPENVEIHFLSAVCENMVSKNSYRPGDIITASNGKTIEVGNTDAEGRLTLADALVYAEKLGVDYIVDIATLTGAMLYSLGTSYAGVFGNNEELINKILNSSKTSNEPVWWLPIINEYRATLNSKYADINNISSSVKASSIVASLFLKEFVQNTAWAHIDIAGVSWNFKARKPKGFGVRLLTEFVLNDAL
Nature of the assay: P. falciparum M17LAP inhibitors, primary screen, biochemical, fluorogenic H-Leu-NHMec substrate, 1536-well (AID 1619). In kind it is functional.

Assay [3] addresses T3, Replicative DNA helicase DnaB (Mycobacterium tuberculosis, UniProt P9WMR3).
T3 sequence (P9WMR3 whole entry): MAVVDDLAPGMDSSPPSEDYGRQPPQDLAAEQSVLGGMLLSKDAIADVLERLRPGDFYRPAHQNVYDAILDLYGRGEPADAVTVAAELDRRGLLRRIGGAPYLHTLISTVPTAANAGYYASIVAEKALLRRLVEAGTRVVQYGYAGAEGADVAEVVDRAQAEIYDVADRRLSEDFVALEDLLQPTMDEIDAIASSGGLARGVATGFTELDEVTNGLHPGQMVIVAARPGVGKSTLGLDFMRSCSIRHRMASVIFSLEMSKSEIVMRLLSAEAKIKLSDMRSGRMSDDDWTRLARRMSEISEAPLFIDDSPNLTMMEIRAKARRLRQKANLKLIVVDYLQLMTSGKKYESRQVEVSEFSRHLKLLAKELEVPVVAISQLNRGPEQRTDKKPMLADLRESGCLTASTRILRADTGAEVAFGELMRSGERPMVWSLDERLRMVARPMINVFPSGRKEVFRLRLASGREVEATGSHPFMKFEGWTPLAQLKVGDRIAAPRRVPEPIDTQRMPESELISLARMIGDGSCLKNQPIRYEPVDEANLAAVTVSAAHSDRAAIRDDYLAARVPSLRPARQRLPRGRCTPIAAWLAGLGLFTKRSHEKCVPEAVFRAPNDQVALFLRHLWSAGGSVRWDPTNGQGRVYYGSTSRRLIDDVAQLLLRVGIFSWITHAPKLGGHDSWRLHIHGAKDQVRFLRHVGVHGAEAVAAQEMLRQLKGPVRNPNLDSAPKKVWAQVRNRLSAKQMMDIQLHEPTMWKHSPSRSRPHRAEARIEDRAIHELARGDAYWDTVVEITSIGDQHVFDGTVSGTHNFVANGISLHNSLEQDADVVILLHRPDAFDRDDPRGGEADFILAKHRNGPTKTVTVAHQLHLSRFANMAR
Kind of assay: DnaB intein splicing inhibitors, dose response, biochemical, cell-free fluorescence (AID 449749). The class given is functional.

For a further assay, the target named is T4, Aminopeptidase N (Plasmodium falciparum FcB1/Columbia, UniProt O96935).
T4 sequence (O96935 whole entry): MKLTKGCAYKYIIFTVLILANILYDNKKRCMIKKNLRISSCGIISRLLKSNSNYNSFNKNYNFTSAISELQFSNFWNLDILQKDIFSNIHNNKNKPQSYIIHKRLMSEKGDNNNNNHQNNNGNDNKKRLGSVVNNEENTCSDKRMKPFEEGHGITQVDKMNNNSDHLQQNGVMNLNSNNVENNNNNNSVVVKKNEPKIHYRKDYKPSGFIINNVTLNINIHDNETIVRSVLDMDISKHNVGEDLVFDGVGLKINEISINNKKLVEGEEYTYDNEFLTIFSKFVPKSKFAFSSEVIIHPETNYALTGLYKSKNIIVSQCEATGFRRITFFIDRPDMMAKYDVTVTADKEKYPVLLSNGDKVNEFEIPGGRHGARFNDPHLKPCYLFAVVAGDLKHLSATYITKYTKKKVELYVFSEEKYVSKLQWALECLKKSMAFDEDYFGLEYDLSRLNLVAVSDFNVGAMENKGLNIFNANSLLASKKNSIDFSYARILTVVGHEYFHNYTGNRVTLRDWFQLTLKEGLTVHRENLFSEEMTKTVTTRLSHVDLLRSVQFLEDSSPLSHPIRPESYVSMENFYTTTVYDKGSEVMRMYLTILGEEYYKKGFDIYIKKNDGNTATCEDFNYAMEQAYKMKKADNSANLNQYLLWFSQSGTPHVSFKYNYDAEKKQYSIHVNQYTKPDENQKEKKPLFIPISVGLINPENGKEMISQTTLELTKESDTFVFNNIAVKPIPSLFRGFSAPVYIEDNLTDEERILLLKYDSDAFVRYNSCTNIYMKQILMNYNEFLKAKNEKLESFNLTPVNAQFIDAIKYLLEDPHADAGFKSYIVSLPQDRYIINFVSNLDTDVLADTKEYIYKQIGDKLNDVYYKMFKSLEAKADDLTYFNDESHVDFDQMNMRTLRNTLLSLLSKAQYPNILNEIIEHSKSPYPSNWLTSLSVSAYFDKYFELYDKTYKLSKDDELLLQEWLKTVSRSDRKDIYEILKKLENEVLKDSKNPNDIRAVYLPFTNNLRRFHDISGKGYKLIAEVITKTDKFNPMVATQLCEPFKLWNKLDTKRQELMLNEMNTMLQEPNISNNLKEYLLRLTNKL
Kind of assay: malaria alanyl aminopeptidase activity blockers – biochemical, fluorogenic H-Leu-NHMec substrate, 1536-well (AID 1445). Also on record: species or system Plasmodium falciparum 3D7, 3D7.

Assay [4] is described as follows: NIH3T3 cell viability loss – ATP luminescence, mouse fibroblasts, counter-screen, dose response (AID 2010).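 Also: cells exposed to compound for about 90 hours before reading.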 In kind it is functional, cell-based.
Assay [5] has as its target T5, Rac GTPase-activating protein 1 (Homo sapiens, UniProt Q9H0H5).
T5 sequence (Q9H0H5 whole entry): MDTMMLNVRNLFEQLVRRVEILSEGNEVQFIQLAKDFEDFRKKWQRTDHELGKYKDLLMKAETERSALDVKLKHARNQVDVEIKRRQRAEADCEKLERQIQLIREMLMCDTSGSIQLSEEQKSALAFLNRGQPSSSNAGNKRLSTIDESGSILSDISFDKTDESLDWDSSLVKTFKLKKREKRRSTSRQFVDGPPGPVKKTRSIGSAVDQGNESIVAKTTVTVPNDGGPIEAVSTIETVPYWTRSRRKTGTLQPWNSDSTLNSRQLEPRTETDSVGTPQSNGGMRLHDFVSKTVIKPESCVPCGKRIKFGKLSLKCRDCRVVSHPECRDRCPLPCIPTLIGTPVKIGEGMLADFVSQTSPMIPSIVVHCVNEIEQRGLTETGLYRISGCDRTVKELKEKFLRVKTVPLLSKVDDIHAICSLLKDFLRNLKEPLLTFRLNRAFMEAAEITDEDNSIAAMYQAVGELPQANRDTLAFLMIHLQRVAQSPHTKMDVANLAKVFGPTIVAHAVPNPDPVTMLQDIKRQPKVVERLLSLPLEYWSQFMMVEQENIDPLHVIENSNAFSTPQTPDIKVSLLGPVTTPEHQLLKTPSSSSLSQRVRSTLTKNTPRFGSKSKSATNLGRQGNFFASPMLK
Kind of assay: blockers of MgcRacGAP-driven Rac1 GTP hydrolysis – biochemical, ADP Hunter fluorescence, primary and confirmatory, confirmation (AID 624330). The class given is functional.

The next assay deals with T6, CAAX prenyl protease 2 (Saccharomyces cerevisiae S288c, UniProt Q03530).
T6 sequence (Q03530 whole entry): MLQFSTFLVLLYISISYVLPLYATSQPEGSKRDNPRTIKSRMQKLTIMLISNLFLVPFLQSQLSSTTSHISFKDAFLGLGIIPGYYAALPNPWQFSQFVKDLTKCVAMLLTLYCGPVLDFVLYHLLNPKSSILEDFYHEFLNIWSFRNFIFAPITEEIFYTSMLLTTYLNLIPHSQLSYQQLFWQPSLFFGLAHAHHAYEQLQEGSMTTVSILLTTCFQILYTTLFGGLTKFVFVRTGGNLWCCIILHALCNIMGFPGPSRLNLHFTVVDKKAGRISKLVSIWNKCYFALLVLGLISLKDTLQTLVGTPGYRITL
The class given is biochemical.

Assay [6] is described as follows: Trypanosoma cruzi growth suppression in host cells – NIH3T3 host cells, beta-gal luminescence, confirmation (AID 2044).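 Also: intracellular parasites grown in NIH/3T3 mouse fibroblasts as host cells; luminescent beta-galactosidase reporter signal from transgenic T. cruzi replicating inside host cells; inhibitors lower the luminescence signal.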 The class given is functional, cell-based.
Assay [7] can be described thus: viability loss in HeLa cells – cytotoxicity control for MgcRacGAP inhibitor project, dose response (AID 624300). In kind it is functional.
The target in assay [8] is Voltage-dependent T-type calcium channel subunit alpha-1H (Homo sapiens, UniProt O95180). The class given is functional.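 Also: channel activity triggered by adding a high calcium stimulation buffer.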
Voltage-dependent T-type calcium channel subunit alpha-1H, sequence (O95180 whole entry): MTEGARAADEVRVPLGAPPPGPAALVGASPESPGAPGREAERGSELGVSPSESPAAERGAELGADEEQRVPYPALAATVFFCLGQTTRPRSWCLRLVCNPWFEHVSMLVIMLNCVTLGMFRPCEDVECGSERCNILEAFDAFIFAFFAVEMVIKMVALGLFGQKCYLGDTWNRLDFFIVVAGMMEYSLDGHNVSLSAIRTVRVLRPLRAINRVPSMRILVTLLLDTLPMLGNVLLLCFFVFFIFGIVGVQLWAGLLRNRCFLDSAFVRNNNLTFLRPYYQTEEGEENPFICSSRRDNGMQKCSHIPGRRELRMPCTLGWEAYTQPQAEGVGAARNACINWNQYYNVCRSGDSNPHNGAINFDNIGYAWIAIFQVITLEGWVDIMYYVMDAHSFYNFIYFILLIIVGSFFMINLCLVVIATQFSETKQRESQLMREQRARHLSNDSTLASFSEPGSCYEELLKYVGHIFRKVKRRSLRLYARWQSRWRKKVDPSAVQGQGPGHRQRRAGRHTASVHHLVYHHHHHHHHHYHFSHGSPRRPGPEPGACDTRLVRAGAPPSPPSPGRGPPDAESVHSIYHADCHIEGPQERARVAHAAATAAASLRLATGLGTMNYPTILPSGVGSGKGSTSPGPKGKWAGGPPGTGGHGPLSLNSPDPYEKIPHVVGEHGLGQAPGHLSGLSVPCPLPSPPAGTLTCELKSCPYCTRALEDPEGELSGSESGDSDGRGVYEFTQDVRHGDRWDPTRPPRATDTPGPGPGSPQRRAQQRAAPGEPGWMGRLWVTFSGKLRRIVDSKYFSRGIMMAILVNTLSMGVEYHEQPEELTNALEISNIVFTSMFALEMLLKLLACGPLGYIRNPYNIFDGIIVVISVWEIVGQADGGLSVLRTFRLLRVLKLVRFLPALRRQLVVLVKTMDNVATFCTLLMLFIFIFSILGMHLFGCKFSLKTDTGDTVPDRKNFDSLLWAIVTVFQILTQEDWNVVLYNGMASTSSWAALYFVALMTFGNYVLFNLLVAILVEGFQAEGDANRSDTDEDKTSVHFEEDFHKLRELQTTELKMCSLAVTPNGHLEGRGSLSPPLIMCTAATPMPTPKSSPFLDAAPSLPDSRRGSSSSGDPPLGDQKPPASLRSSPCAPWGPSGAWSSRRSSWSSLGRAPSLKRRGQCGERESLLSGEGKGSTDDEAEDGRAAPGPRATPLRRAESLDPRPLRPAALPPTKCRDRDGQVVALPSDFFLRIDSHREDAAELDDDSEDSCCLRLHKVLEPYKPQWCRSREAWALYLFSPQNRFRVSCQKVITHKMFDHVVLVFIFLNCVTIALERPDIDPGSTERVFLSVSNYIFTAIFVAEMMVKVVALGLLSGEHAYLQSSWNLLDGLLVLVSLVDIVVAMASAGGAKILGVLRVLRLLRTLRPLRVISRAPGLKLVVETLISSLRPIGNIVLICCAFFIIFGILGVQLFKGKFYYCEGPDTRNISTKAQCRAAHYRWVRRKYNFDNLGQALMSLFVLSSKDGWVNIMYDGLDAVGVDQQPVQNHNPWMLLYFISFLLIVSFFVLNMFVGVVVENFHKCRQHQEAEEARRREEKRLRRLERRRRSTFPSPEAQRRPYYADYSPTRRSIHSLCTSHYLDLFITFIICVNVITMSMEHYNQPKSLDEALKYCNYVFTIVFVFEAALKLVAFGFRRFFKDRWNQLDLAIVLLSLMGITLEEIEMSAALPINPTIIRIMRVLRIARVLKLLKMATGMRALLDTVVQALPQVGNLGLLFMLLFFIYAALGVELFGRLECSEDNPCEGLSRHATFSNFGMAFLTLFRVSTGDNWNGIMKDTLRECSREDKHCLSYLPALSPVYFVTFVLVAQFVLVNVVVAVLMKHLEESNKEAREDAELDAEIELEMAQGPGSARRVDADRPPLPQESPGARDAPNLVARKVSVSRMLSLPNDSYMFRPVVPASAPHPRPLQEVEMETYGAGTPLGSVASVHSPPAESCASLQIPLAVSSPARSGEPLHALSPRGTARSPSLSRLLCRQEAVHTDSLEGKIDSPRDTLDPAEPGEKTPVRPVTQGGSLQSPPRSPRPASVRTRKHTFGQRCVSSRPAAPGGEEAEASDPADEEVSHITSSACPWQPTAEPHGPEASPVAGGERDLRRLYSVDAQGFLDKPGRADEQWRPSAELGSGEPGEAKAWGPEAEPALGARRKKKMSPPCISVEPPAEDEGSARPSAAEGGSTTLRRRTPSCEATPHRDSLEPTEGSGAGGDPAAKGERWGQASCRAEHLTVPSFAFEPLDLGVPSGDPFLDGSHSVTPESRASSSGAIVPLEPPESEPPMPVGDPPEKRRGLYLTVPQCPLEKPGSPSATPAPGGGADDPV

The source made the active and inactive calls. Bounds are passed on as bounds.

DNA dC->dU-editing enzyme APOBEC-3G, sequence (Q9HC16 whole entry): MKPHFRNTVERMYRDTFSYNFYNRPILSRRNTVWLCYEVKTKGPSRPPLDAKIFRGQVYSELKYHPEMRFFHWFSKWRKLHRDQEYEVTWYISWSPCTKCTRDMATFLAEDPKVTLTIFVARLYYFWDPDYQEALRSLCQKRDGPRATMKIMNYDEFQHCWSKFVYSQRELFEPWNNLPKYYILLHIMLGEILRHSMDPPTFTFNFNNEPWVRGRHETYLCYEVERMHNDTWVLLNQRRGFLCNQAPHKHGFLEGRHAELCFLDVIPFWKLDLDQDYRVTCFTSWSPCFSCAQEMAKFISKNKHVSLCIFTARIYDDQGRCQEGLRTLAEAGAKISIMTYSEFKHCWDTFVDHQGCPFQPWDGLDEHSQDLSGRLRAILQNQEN

For `O=C(O)c1ccc(-n2c(-c3ccc(Br)cc3)n[nH]c2=S)cc1`, the IC50 in assay [1] is 9.1 µM (active).
As for `O=c1oc2ccccc2nc1/C=C(\O)c1ccccc1`, the EC50 in assay [2] was > 50 µM (active).
As to `COCCCn1c(N)c(C(=O)NCc2ccco2)c2nc3ccccc3nc21`, the AC50 on Trypsin was 10.3 µM (active).
`Cc1ccc(SCc2n[nH]c3c2C2(CCSCC2)C(C#N)=C(N)O3)cc1`: the EC50 on Protein RecA is 2.42 µM (active). For the same molecule, the IC50 at Leucine aminopeptidase was 91 µM (active). The AC50 in assay [3] is 2.94 µM (active).
In the case of `COc1ccc(S(=O)(=O)NC2=NC(=O)/C(=C\c3cc(OC)c(OC)cc3[N+](=O)[O-])S2)cc1`, the IC50 on Aminopeptidase N is 22.4 µM (active).
Turning to `CCOC(=O)c1c(NC(=O)C2C3C=CC(C3)C2C(=O)O)sc2c1CCC(C)C2` (stereo not given), the IC50 at Leucine aminopeptidase is 15.7 µM (active).
Turning to `COc1ccc(C2CC(c3ccc4ccccc4c3)=NN2C(=O)CNC2CCCCC2)cc1` (stereo not given), the values for the EC50 in assay [4] and in assay [6] were > 30 µM (not active) and 2.76 µM (active), respectively. The IC50 in [5] is 110 µM (active). Moreover, the values for the concentration at half-maximal activity (AC50) on CAAX prenyl protease 2 and on Trypsin were 9.16 µM (active) and > 100 µM (inactive), respectively. The 50% cytotoxic concentration (CC50) in assay [7] was 39 µM (active).
For `Cc1ccccc1C(=O)Nc1nncs1`, the IC50 at Leucine aminopeptidase is 25.4 µM (active).
On to `CCC1Oc2ccc(C)cc2N(CC(=O)NCC2COc3ccccc3O2)C1=O` (stereo not given), for which the results for the EC50 in [2] and in [8] were > 50 µM (active) and 5.63 µM (active), respectively.
`O=C(CC1Sc2ccccc2NC1=O)Nc1cccc(C(=O)O)c1` (stereo not given): the IC50 at Leucine aminopeptidase is 2.94 µM (active).
As to `CCCN(CCC)CC(=O)Nc1cccc2c1OCO2`, the concentration giving a half-maximal response (EC50) in assay [2] is > 50 µM (active).
In the case of `O=C(Nc1cc(S(=O)(=O)N2CCOCC2)ccc1N1CCCCC1)c1ccc(Cl)cc1`, in [1], the IC50 was 50.5 µM (active).
